Assay results reported in patent US10328082B2, “Methods of use and combinations” (Pfizer Inc., priority 2014, dated 2019).

What was measured:
[1] = target: T1, human Androgen Receptor (AR) (Homo sapiens, UniProt P10275); assay: Androgen Receptor-Mediated Transcriptional Assay; assay type: cell-based; settings: CV-1 cells transiently transfected with full length human AR and ARE-luciferase, 16-18 hours incubation
T1 construct: transiently transfected in T225 cm^2 flasks with a full length human Androgen Receptor (AR) cDNA; expressed in transfected cells; host or cells: CV-1 cells (ATCC CCL-70), transiently transfected
T1 sequence (P10275 1-920): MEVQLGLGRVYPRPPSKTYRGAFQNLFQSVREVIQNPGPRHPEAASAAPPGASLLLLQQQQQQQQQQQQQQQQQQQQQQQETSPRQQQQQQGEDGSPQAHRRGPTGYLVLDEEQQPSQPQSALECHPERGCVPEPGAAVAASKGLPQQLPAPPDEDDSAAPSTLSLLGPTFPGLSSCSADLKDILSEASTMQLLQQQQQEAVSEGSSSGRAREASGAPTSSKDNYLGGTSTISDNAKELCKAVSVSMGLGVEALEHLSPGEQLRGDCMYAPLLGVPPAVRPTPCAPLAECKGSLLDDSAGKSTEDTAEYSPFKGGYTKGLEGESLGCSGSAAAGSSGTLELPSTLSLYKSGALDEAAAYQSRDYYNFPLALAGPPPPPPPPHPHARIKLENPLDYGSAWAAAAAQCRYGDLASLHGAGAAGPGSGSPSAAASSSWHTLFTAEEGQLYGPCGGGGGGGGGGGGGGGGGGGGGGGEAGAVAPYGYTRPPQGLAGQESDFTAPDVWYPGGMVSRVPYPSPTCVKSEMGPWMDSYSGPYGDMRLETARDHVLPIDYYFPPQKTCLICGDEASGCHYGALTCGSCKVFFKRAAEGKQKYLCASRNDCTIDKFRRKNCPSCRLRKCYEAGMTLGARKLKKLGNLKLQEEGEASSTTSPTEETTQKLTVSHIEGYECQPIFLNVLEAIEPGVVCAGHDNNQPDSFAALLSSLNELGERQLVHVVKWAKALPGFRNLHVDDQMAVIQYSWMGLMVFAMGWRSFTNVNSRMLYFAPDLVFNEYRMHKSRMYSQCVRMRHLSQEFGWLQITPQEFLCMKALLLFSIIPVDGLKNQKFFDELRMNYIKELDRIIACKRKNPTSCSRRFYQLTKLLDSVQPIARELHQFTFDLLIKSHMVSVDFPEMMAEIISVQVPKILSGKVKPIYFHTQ
Method: Androgen Receptor-Mediated Transcriptional Assay Summary
CV-1 cells (American Tissue Culture Collection cat# CCL-70) were expanded in Growth Media and transiently transfected in T225 cm^2 flasks with a full length human Androgen Receptor (AR) cDNA in the pcDNA3 expression vector and a human Androgen Response Element (ARE)-luciferase cDNA in the pGL3 vector (both from Invitrogen). DNA (μg) and Lipofectamine (μl) at a ratio of 1:3 were incubated with the cells in a total volume of 55 mL Basal Media for 4 hours. Cells were harvested by trypsinization and frozen back (−150° C. cryomed) at a concentration of 4.3 million cells/mL.
On the day of the assay, frozen cells were thawed and re-suspended in Re-suspension Media and plated at 40,000 cells/well (in 100 μL volume) in 96 well white plates and were incubated for at least 4 h at 37° C., 5% CO2. After incubation, cells were treated with the compounds to be screened. 10 mM stocks of the compounds were serially diluted 1:10 in 100% DMSO followed by an additional 1:100 dilution in Assay Media. These dilution series were added to the cell plates resulting in a further 1:10 dilution and a final % DMSO of 0.1%. The vehicle control wells also contained this dilution of DMSO and the positive control wells contained […] (DHT) as an AR agonist at final concentration of 0.3 nM in 0.1% DMSO. Cells were incubated for 16-18 hours at 37° C. and 5% CO2. Then the culture media was removed from and the cells were lysed in 20 μL of cell lysis reagent for 5 minutes at room temperature. 50 μL of luciferase reagent was added to each well and luminescence, over 5 seconds, was measured.
EC50 (half maximal effective concentration) was calculated from concentration series plots which generated sigmoidal curves. Xlfit software was used to plot the best fit of the % effect vs concentration and to calculate the EC50.

[2] = DSC profile of the crystalline form; assay type: physicochemical; settings: demonstrated by the high DSC melting point and DSC profile
Method: DSC measurements were performed with a Discovery DSC (TA instruments) equipped with a refrigerated cooling accessory. Approximately 2-5 mg of solid sample was weighed into a standard/Tzero aluminum pan and non-hermetically sealed. The sample was placed in a cell with continuous dry nitrogen purge (50 mL/min) and heated from 25° C. to 250° C. at 10° C./min heating rate. The cell constant was determined using indium and temperature calibration was performed using indium and tin as standards. The experimental data were analyzed using commercially available software (TA Universal Analysis 2000/Trios software, TA Instruments).
The characterization data disclosed herein confirms the crystalline nature of the 6-[(4R)-4-methyl-1,1-dioxido-1,2,6-thiadiazinan-2-yl]isoquinoline-1-carbonitrile free base Form (1) material and, as such, that it is a useful form for pharmaceutical development. For example, crystalline materials are generally considered to be an advantageous form for drug substance manufacturing because, for example, they are more easily purified, can be prepared with higher yields, have improved filtration and drying characteristics and improved flow and handling characteristics.

Molecule	EC50 ([1]; Compounds 1-22) [nM]	also measured
6-[(4S)-4-(3-methylphenyl)-1,1-dioxido-1,2,6-thiadiazinan-2-yl]isoquinoline-1-carbonitrile [Compound 20]	8	–
6-[(4S)-4-ethyl-1,1-dioxido-1,2,6-thiadiazinan-2-yl]isoquinoline-1-carbonitrile [Compound 21]	8	–
6-{(2R,5R)-2-[(1R)-1-hydroxyethyl]-5-methylpyrrolidin-1-yl}isoquinoline-1-carbonitrile [Compound 31]	–	EC50 ([1]; Compounds 23-39): 474 nM
C[C@@H]1CNS(=O)(=O)N(c2ccc3c(C#N)nccc3c2)C1 [6-[(4R)-4-methyl-1,1-dioxido-1,2,6-thiadiazinan-2-yl]isoquinoline-1-carbonitrile]	–	hygroscopic nature [2]: non-hygroscopic; thermal stability [2]: thermal stability
C[C@H]1CN(C)S(=O)(=O)N1c1ccc2c(C#N)nccc2c1 [Compound 5]	5	–
